Common to all, as to test: biochemical
Parameters in all cases: KINOMEscan scanMAX active site-directed competition binding assay, percent of control, 468 kinases
Common to all, as to conditions: competition binding, percent of control

For one experiment, the target named is LTK (Homo sapiens, UniProt P29376). Summed up:
(§1)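 KINOMEscan active site-directed competition binding assay against 468 human kinases with 100 μM S-carvone. Binding expressed as % of control, with 35% of control as the inhibition threshold.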

Another experiment deals with TNNI3K (Homo sapiens, UniProt Q59H18). Summed up:
as §1

A further experiment addresses FLT1 (Homo sapiens, UniProt P17948). Put shortly: as §1
For experiment [1], the target named is T1, RPS6KA5(Kin.Dom.2-C-terminal) (Homo sapiens, UniProt O75582).
T1 construct: Kin.Dom.2-C-terminal
Put shortly: as §1

For a further experiment, the target named is T2, ADCK3 (Homo sapiens, UniProt Q8NI60).
T2 construct: gene COQ8A
Summed up: as §1

The target in another experiment is CDK3 (Homo sapiens, UniProt Q00526). Put shortly:
as §1

The target in the next experiment is NEK9 (Homo sapiens, UniProt Q8TD19). Summed up: as §1
NEK9, sequence (Q8TD19 whole entry): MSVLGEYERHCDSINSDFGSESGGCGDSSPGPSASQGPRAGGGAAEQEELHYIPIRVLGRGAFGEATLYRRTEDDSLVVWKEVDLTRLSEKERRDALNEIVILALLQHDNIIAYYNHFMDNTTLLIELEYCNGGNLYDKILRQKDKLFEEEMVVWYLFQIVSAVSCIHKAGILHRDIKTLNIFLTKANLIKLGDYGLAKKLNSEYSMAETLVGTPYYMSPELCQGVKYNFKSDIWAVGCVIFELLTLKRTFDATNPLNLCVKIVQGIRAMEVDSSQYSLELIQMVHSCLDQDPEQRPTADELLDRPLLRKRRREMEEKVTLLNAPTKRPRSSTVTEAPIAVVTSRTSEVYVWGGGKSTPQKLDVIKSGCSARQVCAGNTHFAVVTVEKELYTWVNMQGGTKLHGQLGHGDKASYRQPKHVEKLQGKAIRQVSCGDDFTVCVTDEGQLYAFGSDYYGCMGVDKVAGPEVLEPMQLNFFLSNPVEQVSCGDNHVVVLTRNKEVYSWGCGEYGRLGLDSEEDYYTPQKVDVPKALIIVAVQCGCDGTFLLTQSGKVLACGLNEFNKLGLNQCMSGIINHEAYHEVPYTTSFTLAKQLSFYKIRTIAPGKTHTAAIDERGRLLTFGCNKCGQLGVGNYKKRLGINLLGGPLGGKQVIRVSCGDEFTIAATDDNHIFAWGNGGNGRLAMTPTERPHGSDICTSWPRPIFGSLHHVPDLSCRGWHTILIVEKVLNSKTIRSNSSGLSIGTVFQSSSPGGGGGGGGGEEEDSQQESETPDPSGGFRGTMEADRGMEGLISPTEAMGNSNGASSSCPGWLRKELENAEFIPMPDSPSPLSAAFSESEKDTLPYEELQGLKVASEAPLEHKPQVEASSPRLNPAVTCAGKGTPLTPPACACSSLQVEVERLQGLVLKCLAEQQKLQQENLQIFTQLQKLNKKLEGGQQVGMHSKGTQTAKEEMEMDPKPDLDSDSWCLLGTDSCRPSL
The next experiment has as its target GRK1 (Homo sapiens, UniProt Q15835). Put shortly: as §1
The target in the next experiment is NEK10 (Homo sapiens, UniProt Q6ZWH5). Put shortly: as §1
Another experiment addresses RET (Homo sapiens, UniProt P07949). Put shortly: as §1
In a further experiment the target is TLK2 (Homo sapiens, UniProt Q86UE8). Put shortly: as §1
A further experiment addresses LIMK2 (Homo sapiens, UniProt P53671). Summed up:
as §1

The target in a further experiment is DAPK2 (Homo sapiens, UniProt Q9UIK4). Summed up:
as §1

In a further experiment the target is CSNK1A1L (Homo sapiens, UniProt Q8N752). Summed up: as §1
CSNK1A1L, sequence (Q8N752 whole entry): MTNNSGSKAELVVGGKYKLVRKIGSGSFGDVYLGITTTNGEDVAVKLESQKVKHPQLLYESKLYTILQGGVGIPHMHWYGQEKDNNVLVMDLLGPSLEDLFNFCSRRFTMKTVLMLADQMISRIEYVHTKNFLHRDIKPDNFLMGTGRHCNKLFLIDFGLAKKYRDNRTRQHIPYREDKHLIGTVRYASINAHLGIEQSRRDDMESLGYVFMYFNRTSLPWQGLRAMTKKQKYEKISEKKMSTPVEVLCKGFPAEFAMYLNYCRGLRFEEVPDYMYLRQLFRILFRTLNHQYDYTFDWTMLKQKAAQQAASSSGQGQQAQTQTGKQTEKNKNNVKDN
Another experiment deals with FLT3(N841I) (Homo sapiens, UniProt P36888, N841I). Summed up: as §1
The next experiment deals with CSNK1D (Homo sapiens, UniProt P48730). Put shortly:
as §1

For a further experiment, the target named is TNIK (Homo sapiens, UniProt Q9UKE5). Summed up: as §1
The next experiment concerns the target EPHA1 (Homo sapiens, UniProt P21709). Summed up: as §1
A further experiment has as its target BRSK2 (Homo sapiens, UniProt Q8IWQ3). Put shortly:
as §1

A further experiment concerns the target LIMK1 (Homo sapiens, UniProt P53667). Summed up:
as §1

The target in the next experiment is BRSK1 (Homo sapiens, UniProt Q8TDC3). Summed up:
as §1

The target in the next experiment is PLK4 (Homo sapiens, UniProt O00444). Summed up: as §1

From article PMC10174618, “Monoterpenoid aryl hydrocarbon receptor allosteric antagonists protect against ultraviolet skin damage in female mice” (Nature Communications, 2023) come the findings set out here.

RET, sequence (P07949 whole entry): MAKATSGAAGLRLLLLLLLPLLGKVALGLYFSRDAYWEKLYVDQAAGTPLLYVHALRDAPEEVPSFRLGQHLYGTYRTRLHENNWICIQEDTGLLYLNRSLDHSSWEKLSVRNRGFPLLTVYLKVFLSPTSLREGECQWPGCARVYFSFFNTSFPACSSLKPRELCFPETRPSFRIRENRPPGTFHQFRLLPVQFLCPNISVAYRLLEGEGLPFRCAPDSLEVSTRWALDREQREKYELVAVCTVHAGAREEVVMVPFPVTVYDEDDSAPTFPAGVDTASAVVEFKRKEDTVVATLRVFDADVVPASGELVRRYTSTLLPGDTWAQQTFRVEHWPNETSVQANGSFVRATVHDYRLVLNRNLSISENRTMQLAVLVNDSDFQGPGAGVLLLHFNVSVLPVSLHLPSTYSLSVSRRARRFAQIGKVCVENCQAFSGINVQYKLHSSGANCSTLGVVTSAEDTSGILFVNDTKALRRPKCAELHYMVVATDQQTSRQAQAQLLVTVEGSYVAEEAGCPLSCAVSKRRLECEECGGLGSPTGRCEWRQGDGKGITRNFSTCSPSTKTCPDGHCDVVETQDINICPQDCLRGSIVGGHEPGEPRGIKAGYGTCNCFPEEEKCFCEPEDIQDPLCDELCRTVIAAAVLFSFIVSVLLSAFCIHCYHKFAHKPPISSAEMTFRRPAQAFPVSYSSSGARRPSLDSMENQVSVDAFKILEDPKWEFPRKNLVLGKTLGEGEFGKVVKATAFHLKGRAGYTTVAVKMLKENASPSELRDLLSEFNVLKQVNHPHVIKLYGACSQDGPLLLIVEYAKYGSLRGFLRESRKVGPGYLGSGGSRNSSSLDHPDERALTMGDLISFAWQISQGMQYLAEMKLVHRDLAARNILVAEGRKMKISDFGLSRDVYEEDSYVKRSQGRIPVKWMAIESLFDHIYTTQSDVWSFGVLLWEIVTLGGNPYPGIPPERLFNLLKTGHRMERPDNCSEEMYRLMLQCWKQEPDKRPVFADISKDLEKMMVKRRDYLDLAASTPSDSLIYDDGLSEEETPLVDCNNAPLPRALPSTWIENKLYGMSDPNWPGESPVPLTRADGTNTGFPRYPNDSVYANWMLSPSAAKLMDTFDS
BRSK1, sequence (Q8TDC3 whole entry): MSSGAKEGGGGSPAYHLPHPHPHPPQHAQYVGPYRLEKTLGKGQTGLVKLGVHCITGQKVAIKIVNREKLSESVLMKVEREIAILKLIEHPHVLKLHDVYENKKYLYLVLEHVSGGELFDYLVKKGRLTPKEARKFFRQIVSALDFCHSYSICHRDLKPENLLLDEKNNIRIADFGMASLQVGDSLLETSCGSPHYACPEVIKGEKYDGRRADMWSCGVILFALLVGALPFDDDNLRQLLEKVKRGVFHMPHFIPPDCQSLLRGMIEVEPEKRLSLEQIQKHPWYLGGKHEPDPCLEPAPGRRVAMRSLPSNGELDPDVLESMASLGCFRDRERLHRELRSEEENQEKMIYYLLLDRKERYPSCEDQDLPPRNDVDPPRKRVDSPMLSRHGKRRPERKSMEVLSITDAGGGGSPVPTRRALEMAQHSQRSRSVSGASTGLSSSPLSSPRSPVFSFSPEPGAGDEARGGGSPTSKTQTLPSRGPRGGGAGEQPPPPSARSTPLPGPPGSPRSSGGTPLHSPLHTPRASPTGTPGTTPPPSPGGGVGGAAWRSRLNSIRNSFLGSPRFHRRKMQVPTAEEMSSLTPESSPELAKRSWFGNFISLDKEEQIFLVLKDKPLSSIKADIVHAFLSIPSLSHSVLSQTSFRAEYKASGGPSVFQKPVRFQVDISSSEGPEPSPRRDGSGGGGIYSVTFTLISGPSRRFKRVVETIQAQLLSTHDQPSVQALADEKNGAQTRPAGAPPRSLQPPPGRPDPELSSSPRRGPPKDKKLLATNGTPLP
LIMK2, sequence (P53671 whole entry): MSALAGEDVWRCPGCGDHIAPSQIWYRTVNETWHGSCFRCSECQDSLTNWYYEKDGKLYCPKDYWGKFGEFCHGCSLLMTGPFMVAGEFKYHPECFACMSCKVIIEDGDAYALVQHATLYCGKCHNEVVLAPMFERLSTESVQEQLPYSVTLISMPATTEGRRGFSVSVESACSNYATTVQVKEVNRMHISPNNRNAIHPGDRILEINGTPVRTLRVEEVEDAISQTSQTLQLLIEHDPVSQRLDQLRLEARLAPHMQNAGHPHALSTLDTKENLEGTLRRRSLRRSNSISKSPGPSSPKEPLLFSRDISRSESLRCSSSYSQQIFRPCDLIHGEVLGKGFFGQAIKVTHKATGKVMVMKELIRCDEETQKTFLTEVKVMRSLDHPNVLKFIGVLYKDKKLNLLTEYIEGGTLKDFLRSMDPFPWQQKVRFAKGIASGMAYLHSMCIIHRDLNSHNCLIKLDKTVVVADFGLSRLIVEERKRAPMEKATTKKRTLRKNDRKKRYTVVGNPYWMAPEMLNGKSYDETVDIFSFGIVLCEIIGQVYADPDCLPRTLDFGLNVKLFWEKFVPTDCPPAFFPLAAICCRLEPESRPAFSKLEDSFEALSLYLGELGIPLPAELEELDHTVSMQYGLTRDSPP
DAPK2, sequence (Q9UIK4 whole entry): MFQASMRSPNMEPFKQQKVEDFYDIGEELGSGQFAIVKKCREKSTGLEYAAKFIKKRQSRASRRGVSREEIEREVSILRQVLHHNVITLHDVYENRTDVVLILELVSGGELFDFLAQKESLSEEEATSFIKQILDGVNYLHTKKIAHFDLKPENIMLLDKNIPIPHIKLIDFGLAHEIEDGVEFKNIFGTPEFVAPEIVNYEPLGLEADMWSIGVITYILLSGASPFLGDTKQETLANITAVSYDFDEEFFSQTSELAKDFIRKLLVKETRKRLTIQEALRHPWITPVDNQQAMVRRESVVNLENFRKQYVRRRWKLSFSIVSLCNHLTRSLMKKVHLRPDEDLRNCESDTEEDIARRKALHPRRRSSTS
GRK1, sequence (Q15835 whole entry): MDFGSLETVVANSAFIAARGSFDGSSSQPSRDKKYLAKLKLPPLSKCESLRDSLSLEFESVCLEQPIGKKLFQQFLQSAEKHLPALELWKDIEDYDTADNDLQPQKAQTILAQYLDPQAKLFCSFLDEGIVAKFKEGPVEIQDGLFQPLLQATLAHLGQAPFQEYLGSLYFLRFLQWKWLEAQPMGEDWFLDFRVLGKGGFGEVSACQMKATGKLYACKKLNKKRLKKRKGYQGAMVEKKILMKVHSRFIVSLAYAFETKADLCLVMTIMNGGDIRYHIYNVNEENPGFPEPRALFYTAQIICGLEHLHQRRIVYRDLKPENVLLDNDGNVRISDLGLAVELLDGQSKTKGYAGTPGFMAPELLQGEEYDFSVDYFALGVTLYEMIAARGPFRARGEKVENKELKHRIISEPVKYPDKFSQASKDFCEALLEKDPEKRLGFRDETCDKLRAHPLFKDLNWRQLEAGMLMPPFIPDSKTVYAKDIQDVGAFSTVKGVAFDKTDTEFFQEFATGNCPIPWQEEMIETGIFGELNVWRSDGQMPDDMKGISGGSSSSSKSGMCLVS

Regarding `C=C(C)[C@H]1CC=C(C)C(=O)C1` [S-carvone], the remaining binding at 100 µM stood at 79% at LTK; 93% on TNNI3K; 91% at FLT1; 85% in experiment [1]; 66% at ADCK3; 92% at CDK3. The remaining binding at 100 µM worked out at 80% at NEK9; 74% on GRK1; 71% at NEK10; 82% at RET; 94% at TLK2; 90% at LIMK2. In addition, the remaining binding at 100 µM on DAPK2 is 79%; on CSNK1A1L it was 85%; on FLT3(N841I), 63%; at CSNK1D, 68%; on TNIK it was 84%; on EPHA1 it was 82%. Also, the remaining binding at 100 µM at BRSK2 worked out at 79%; at LIMK1 it was 89%; on BRSK1, 100%; at PLK4, 76%.
